{"source": "patent US20250179167A1", "about": "“IL-6 INHIBITOR AS TREATMENT FOR NEPHROPATHY” (YALE UNIVERSITY, priority 2022, published 2025)", "format_in_all_cases": "in vivo, mouse", "key": {"UUO mice": {"tested_on": "UUO mice", "assay": "Wnt inhibitor (LGK974) treatment in UUO mice, renal histology, GR and β-catenin", "procedure": "FIG. 24A-24J show inhibition of Wnt signaling abolished the fibrogenic phenotype in mice. (FIG. 24A) Immunohistochemical analysis of -catenin expression in the kidneys of control and diabetic CD-1 and C57BL/6 mice. n=8 biologically independent mice/group combined from two independent experiments were evaluated. Scale bar 50 μm. Representative images are shown; original magnification 200×. (FIG. 24B) Relative mRNA expression determined by qRT-PCR of Axin2, Tcf and fibronectin, in kidneys of control and diabetic CD-1 and C57BL/6 mice. n=6 biologically independent mice/group combined from two experiments were evaluated. Expression was normalized to the internal control 18S. (FIG. 24C) Schematic diagram representing the treatment protocol of Wnt inhibitor (LGK974; 5 mg/kg body weight) in diabetic CD-1 mice and (FIG. 24D) in UUO mice. (FIG. 24E) Masson trichrome and Sirius red staining in the kidneys of diabetic and Wnt inhibitor-treated diabetic CD-1 mice. Representative images (original magnification 300×) are shown. Relative area of fibrosis (%) and relative collagen deposition (%) were measured using the ImageJ program. n=8 biologically independent mice/group combined from two experiments were evaluated. Scale bar 50 μm. (FIG. 24F) Masson trichrome and Sirius red staining in the kidneys of UUO and Wnt inhibitor-treated UUO mice. Representative images (original magnification 300×) are shown. Relative area of fibrosis (%) and relative collagen deposition (%) were measured using the ImageJ program. n=8 biologically independent mice/group combined from two experiments were evaluated. Scale bar 50 μm. (FIGS. 24G-24H) GR protein levels in CD31-positive cells were analyzed by immunofluorescence in the kidneys of Wnti-treated diabetic mice and Wnti-treated UUO mice. FITC-labeled GR, rhodamine-labeled CD31 and DAPI were used. Merged images and representative pictures are shown; original magnification 300×. n=7 biologically independent mice/group combined from four experiments were evaluated. Scale bar 50 μm. (FIGS. 24I-24J) Immunohistochemical analysis of active -catenin expression in Wnti-treated diabetic mice and Wnti-treated UUO mice. n=7 biologically independent mice/group combined from three experiments were evaluated. Scale bar 30 μm. Data are mean SEM. In all panels, one-way Anova with Tukey multiple comparison post hoc test was used to calculate statistical significance. Significance—*p<0.05, **p<0.01, ***p<0.001.\nMouse model of unilateral ureteral obstruction (UUO). UUO surgical procedure was performed as previously described^19. Briefly, mice were anesthetized with isoflurane (3%-5% for induction and 1%-3% for maintenance). Mice were shaved on the left side of the abdomen, a vertical incision was made through the skin with a scalpel, and the skin was retracted. A second incision was made through the peritoneum to expose the kidney. The left ureter was ligated twice […] below the renal pelvis with surgical silk, and the ureter was then severed between the 2 ligatures. Then, the ligated kidney was placed gently back into its correct anatomical position, and sterile saline was added to replenish loss of fluid. The incisions were sutured and mice were individually caged. Buprenorphine was used as an analgesic. The first dose was administered 30 minutes before surgery and then every 12 h for 72 h, at a dose of 0.05 mg/kg subcutaneously. Mice were sacrificed and kidney and blood samples were harvested after perfusion with PBS at 10 days after UUO. Contralateral kidneys were used as a nonfibrotic control for all experiments using this model.\nMorphological Evaluation. A point-counting method was utilized to evaluate the relative area of the mesangial matrix. The inventors analyzed PAS-stained glomeruli from each mouse using a digital microscope screen grid containing 540 (27×20) points. Masson's trichrome-stained images were evaluated by ImageJ software, and the fibrotic areas were estimated.\nSirius red staining. […]"}, "diabetic CD-1 mice": {"tested_on": "diabetic CD-1 mice", "assay": "Plasma cytokine array (Luminex) in diabetic CD-1 mice with and without Wnti treatment", "procedure": "Plasma cytokines and chemokines were measured in diabetic CD-1 mice with and without Wnti treatment by using a cytokine array analysis (Luminex). n=5 biologically independent mice/group. Data are mean±SEM. Student's-test (unpaired two-tailed) was used for analysis of statistical significance. Significance—*p<0.05. In one experiment, male mice were randomized to one of 4 groups sixteen weeks after induction of diabetes: (i) untreated, (ii) fenofibrate (100 mg/kg), (iii) simvastatin (40 mg/kg), or (iv) Wnt inhibitor (LGK974; 5 mg/kg). In each case, mice were treated for 4 weeks and compared to untreated diabetic CD-1 mice. In another experiment, male diabetic CD-1 mice were randomized into one of 3 groups: (i) untreated (vehicle), (ii) etomoxir (20 mg/kg) or (iii) C75 (15 mg/kg); in each case mice were treated (IP) three times/week for a total 4 weeks."}, "[1]": {"tested_on": "isolated endothelial cells", "assay": "Western blot in isolated endothelial cells from Wnt inhibitor-treated diabetic mice", "conditions": "isolated ECs from Wnt inhibitor-treated diabetic mice", "from_the_text": "Western blot analysis of Snail1, PPARα, active-β-catenin, and HIF1α proteins in isolated endothelial cells. […] Densitometry calculations are combined from three independent experiments Data are mean±SEM. One-way Anova with Tukey multiple comparison post hoc test was used to calculate statistical significance. Significance—*p<0.05, **p<0.01, ***p<0.001. Isolation of endothelial cells. Endothelial cells from the kidneys of non-diabetic and diabetic mice were isolated using a standardized kit (Miltenyl Biotech, USA) by following the manufacturer's instructions. Briefly, kidneys were isolated and minced into small pieces. Using a series of enzymatic reactions by treating the tissue with trypsin and Collagenase type I solution, a single cell suspension was created. The pellet was dissolved with CD31 magnetic beads and the CD31-labelled cells were separated on a magnetic separator. The cells were further purified on a column. Cell number was counted by hemocytometer and cells were plated on 0.1% gelatin coated Petri dishes. Cell purity was measured by flow cytometry (BD FACSDiva) using PE-conjugated CD31 (BDB553373) (1:100) and FITC-conjugated CD45 (BDB553079) (1:100), both from Becton Dickinson (USA). Western blot. Protein lysates were boiled in sodium dodecyl sulfate (SDS) sample buffer at 94′C for 5 min. […]"}, "ECs from CD-1 mice": {"tested_on": "ECs from CD-1 mice", "assay": "Fatty acid uptake ([14C]palmitate uptake) in isolated kidney endothelial cells", "method": "(FIG. 31A) Fatty acid uptake was measured as [^14C]palmitate uptake. […] [^14C]palmitate was used as substrate and CPM counts were normalized to protein. In both cases, endothelial cells isolated from n=5 biologically independent mice/group were analyzed in triplicate. Data are mean±SEM. One-way Anova with Tukey multiple comparison post hoc test was used to calculate statistical significance. Significance—*p<0.05, **p<0.01, ***p<0.001. Fatty acid uptake. Cultured isolated kidney endothelial cells were incubated with medium containing 2 μCi [^14C]-palmitate. [^14C]-palmitate uptake was measured by liquid scintillation counting."}}, "data": [{"smiles": "Cc1cc(-c2ncc(CC(=O)Nc3ccc(-c4cnccn4)cn3)cc2C)ccn1", "note": "[LGK974]", "values": [{"measurement": "ECM deposition", "setting": "UUO mice; 5 mg/kg", "result": "greatly diminished"}, {"measurement": "collagen accumulation", "setting": "UUO mice; 5 mg/kg", "result": "greatly diminished"}, {"measurement": "glomerulosclerosis", "setting": "UUO mice; 5 mg/kg", "result": "greatly diminished"}, {"measurement": "relative area of fibrosis", "setting": "UUO mice; 5 mg/kg", "result": "greatly diminished"}, {"measurement": "level of β-catenin", "setting": "UUO mice; kidney immunohistochemistry", "result": "suppressed the level of β-catenin"}, {"measurement": "endothelial GR", "setting": "UUO mice; kidney, GR in CD31-positive cells", "result": "substantially restored endothelial GR"}, {"measurement": "plasma CCL4 level", "setting": "diabetic CD-1 mice", "result": "significantly suppressed"}, {"measurement": "plasma CCL5 level", "setting": "diabetic CD-1 mice", "result": "increasing"}, {"measurement": "plasma G-CSF level", "setting": "diabetic CD-1 mice", "result": "significantly suppressed"}, {"measurement": "plasma IL-1β level", "setting": "diabetic CD-1 mice", "result": "significantly suppressed"}, {"measurement": "plasma IL-6 level", "setting": "diabetic CD-1 mice", "result": "significantly suppressed"}, {"measurement": "plasma IL-10 level", "setting": "diabetic CD-1 mice", "result": "significantly suppressed"}, {"measurement": "plasma MCP-1 level", "setting": "diabetic CD-1 mice", "result": "significantly suppressed"}, {"measurement": "plasma TNFα level", "setting": "diabetic CD-1 mice", "result": "significantly suppressed"}, {"measurement": "Snail1, HIF1α and PPARα proteins", "setting": "[1]", "result": "A similar effect was observed"}, {"measurement": "FA uptake ([14C]palmitate uptake)", "setting": "ECs from CD-1 mice", "result": "suppressed FA uptake"}]}]}
